# Data as given in patent US20210360924A1, “PLANT OR SEED COATING” (University of Southampton, priority 2017, published 2021).
# “Also recorded” adds a separate entry of the source.
# What was measured:
# G. pallida J2s [1] = assay: G. pallida stylet thrusting assay; type: in vivo, Globodera pallida; details: for stimulation of stylet thrusting by the compound itself: J2s in compound alone; for exposure time at which maximal stylet response was seen / maximally effective concentration for stylet thrusting / effect on S-shaped posture and reduced movement induced by fluoxetine: in vivo; for effect on stylet behaviour: concentrations up to 10 mM (data not shown); for effect on stylet response to fluoxetine / effect on stylet response to exogenous serotonin: 24 h presoak
# Protocol: Stylet thrusting assays were conducted in 20 mM HEPES buffered ddH2O, with pH adjusted to 7.4 with NaOH. J2s were pipetted into 3 ml of the test solutions in 30 mm petri dishes and the number of stylet thrusts per minute was counted at various time points as stated in figure legends. A single movement of the stylet knob forwards and then backwards to its original position was counted as one stylet thrust. Control assays were conducted in the presence of either 20 mM HEPES alone or 20 mM HEPES with drug vehicle, as indicated in figure legends. All assays were conducted at room temperature (20-22° C.). All drug solutions were made up on the day of use. Each solution contained 0.01% bovine serum albumin to prevent worms from sticking to the Petri dish. Reserpine was dissolved in 100% acetone and then 1 in 200 dilution was made using Hepes buffer (pH 7.4). […] Final concentration 50 μM reserpine.
# For experiments in which J2s were pre-treated with reserpine phosphate or CPA, the worms were pre-soaked in the drug solutions for 24 hours.
# C. elegans = assay: Pharyngeal pumping of intact C. elegans off food with fluoxetine; type: in vivo, Caenorhabditis elegans
# Protocol: (§1) Experiments were performed on one day old age synchronised worms by picking L4 stage a day before the assay. Due to the translucent nature of the worm, pharyngeal pumping may be scored in the intact animals by counting the movements of the grinder in the terminal bulb: one complete up and down motion is counted as a single pharyngeal pump. The number of pharyngeal pumps was counted on E. coli OP50 in N2, in the mutants tph-1 (mg280), ser-7 (tm1325), cat-1 (ok411) and in mutants with ectopic expression of C. elegans (ce) or G. pallida (ppn) tph-1, ser-7 or cat-1 in all of the neurons (Psnb-1 promoter).
# To test the effects of fluoxetine one day old C. elegans for N2, cat-1 (ok411) and cat-1 (ok411) with ectopic expression of C. elegans (ce) or G. pallida (Gpa) cat-1 were placed onto unseeded NGM plates containing fluoxetine and the number of pharyngeal pumps per min was scored after 1 h and 18 h.
# C. elegans SER-7 = biological target: T1, C. elegans SER-7 (Caenorhabditis elegans, UniProt Q22895); assay: Cut head pharyngeal pumping assay
# T1 sequence (Q22895 1-435): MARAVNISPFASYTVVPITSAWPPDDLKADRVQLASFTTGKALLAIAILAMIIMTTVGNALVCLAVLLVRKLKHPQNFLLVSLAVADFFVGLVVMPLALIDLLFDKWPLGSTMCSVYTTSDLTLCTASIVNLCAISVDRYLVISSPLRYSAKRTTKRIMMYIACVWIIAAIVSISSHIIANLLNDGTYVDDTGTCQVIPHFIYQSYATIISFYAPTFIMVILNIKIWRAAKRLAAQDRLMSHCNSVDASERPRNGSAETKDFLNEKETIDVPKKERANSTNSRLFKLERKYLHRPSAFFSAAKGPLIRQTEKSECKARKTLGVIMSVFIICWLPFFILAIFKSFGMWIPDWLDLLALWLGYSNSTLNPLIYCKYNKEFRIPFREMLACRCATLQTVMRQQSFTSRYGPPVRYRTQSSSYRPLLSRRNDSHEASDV
# Protocol: Additionally, an intact pharynx containing a terminal bulb was dissected from the rest of the worm with a razor blade. The pharyngeal preparation was placed into 3 ml of Dent's saline (with 0.1% BSA and the drugs 5-HT or methiothepin) in a 25 mm Petri dish. Pharyngeal pumps were scored visually, as for the intact worms, for 1 min. For controls, the pharyngeal pumping was scored in Dent's saline (0.1% BSA) without drugs with appropriate vehicle controls.
# G. pallida MOD-1 = assay: Thrashing paralysis assay, mod-1 (ok103) expressing G. pallida mod-1; type: in vivo, Globodera pallida; details: worms expressing G. pallida mod-1; 10 μM methiothepin; 33 mM serotonin
# Protocol: (§2) For the methiothepin treatment group, 10 μM methiothepin was included in the wells of the microtitre plate. Wild type (N2), mod-1 (ok103), and the transgenic strains expressing gpa-mod-1 in mod-1 (ok103) were tested.
# G. pallida J2s [2] = assay: Root invasion assay on potato hairy root cultures; type: in vivo, Globodera pallida; details: J2s pre-incubated 24 h with 100 μM compound
# Protocol: J2s of G. pallida were first sterilised with 0.1% chlorhexidine digluconate, 0.5 mg/ml CTAB for 25 mins and washed three times with sterile 0.01% Tween-20. The J2s were then incubated with gentle agitation for 24 hours in water, 100 μM reserpine phosphate, 100 μM methiothepin, 100 μM CPA or 2 mM fluoxetine prior to inoculation of potato hairy root cultures with 25 J2s per infection point and 3 infection points per root system. Hairy root cultures were generated using Agrobacterium rhizogenes R1000 and multiplied. Individual root systems of equivalent size growing on 9 cm plates containing Murashige and Skoog basal medium (Duchefa, Suffolk, UK) with 2% sucrose were selected for inoculation. Nine to 11 replicate plates were used for each treatment or control. Roots were stained with acid fuchsin 13 days after infection and the number of nematodes in each root system counted. Each complete invasion assay was carried out on two separate occasions.
# C. elegans MOD-1 = assay: Thrashing paralysis assay (serotonin-induced paralysis), wild type; type: in vivo, Caenorhabditis elegans; details: wild type worms; 10 μM methiothepin; 33 mM serotonin
# Protocol: as §2
# G. pallida SER-7 = G. pallida SER-7 (Globodera pallida, UniProt A0A183BS20, DEL280-286/G462A/H333Q/S454N/S6T/Y334H); assay: Cut head pharyngeal pumping assay, ser-7 (tm1325) expressing Gpa-ser-7; details: 100 nM; transgenics expressing G. pallida ser-7; 100 μM serotonin
# G. pallida = assay: Hatching of J2s from cysts/eggs; set-up: species or system Globodera pallida; details: in vivo
# G. pallida TPH-1 = assay: Pharyngeal pumping on food with CPA, tph-1 (mg280) expressing G. pallida tph-1; type: in vivo, Globodera pallida; details: tph-1 mutant expressing G. pallida tph-1
# Protocol: as §1
# (§3) To test the effects of CPA (4-chloro-DL-phenylalanine methyl ester hydrochloride) on pharyngeal pumping one day old adult C. elegans for N2, tph-1 (mg280) and tph-1-1 (mg280) with ectopic expression of C. elegans (ce) or G. pallida (Gpa) tph-1 were placed onto E. coli OP50 containing CPA on NGM plates and the number of pharyngeal pumps on food per min was scored after 2 and 18 hours.
# C. elegans TPH-1 = assay: Pharyngeal pumping of C. elegans on food with CPA; type: in vivo
# Protocol: as §1, §3
# G. pallida J2s [3] = assay: G. pallida dispersal (motility) assay on agar arena; type: in vivo, Globodera pallida; details: pre-incubation with 50 μM for 18 h
# Protocol: Dispersal assays were performed on 5 cm plates filled with 10 ml of 2% agarose. […] For the reserpine assays worms were pre-soaked in the compound for 18 h. On the day of the assay 100 μl of potato root diffusate (PRD), ddH2O or drug solvents were spread onto the plates and the plates were sealed with the parafilm. The grid with six equal concentric circles was placed under the assay plates and the centre was marked with a dot. Around 50-100 G. pallida J2s or C. elegans L2 s were pipetted with 5 μl of ddH2O onto the centre (origin), the plate was re-sealed and the total number of worms was counted as soon as the liquid had absorbed. The number of J2s in each concentric circle was counted after 1, 2 and 24 hours.
# G. pallida SER-7, sequence (A0A183BS20 whole entry, stated change not applied): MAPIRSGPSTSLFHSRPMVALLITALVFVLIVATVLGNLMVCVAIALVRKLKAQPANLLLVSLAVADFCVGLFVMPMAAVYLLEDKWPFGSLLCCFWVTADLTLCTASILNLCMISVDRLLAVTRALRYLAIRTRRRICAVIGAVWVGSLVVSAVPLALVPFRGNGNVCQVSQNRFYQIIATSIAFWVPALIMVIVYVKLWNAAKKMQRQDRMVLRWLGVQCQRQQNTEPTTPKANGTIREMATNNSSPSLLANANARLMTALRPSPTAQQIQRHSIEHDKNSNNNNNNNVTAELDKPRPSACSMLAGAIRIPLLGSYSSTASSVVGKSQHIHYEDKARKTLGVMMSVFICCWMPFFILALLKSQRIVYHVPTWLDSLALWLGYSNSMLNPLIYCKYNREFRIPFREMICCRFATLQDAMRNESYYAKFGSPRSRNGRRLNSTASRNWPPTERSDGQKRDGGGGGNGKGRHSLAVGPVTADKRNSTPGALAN
smiles,measurement,setting,value
CN(C)CCCN1c2ccccc2CCc2ccccc21 [imipramine],stimulation of stylet thrusting by the compound itself,G. pallida J2s [1],stimulatory effects
CNCCC(Oc1ccc(C(F)(F)F)cc1)c1ccccc1 (stereo not drawn) [fluoxetine],stimulation of pharyngeal pumping in the absence of food,"C. elegans; 1 mM and 2 mM, or longer exposure at 500 μM",did not cause a stimulation
same,stimulation of pharyngeal pumping in the absence of food,C. elegans; C. elegans cat-1 mutant,not observed
same,exposure time of maximal stimulation of pharyngeal pumping,C. elegans; absence of food,1 h
same,low dose stimulation of pharyngeal pumping,C. elegans; cat-1 mutant expressing ppn-cat-1 (G. pallida),restored
same,low dose stimulation of pharyngeal pumping,C. elegans; cat-1 mutant expressing wild-type C. elegans cat-1,restored
same,stimulation of pharyngeal pumping in the absence of food,"C. elegans; wild type, 5 to 500 μM",concentration-dependent
same,stimulation of stylet thrusting by the compound itself,G. pallida J2s [1],time-dependent and concentration-dependent stimulation; also recorded: stimulatory effects
same,exposure time at which maximal stylet response was seen,G. pallida J2s [1],30 min
same,maximally effective concentration for stylet thrusting,G. pallida J2s [1],2 mM
same,shape of stylet concentration response curve,G. pallida J2s [1]; response after 1 h,bell-shaped
"NCCc1c[nH]c2ccc(O)cc12 [serotonin, 5-hydroxytryptamine]",EC50,"C. elegans SER-7; EC50, activation of pharyngeal pumping, transgenic psnb-1::Ce-ser-7a, cut head, 95% confidence 457 nM to 1.34 μM",782 nM
same,EC50,"C. elegans SER-7; EC50, increase in pharyngeal pumping, wild type worms, cut head, 95% confidence 164 nM to 304 nM",223 nM
same,pharyngeal pumping response,"C. elegans SER-7; ser-7 (tm1325) mutants, cut head, up to 100 μM",did not respond
same,stimulation of stylet thrusting by the compound itself,G. pallida J2s [1],time-dependent and concentration-dependent stimulation
same,exposure time at which maximal stylet response was seen,G. pallida J2s [1],30 min
same,maximally effective concentration for stylet thrusting,G. pallida J2s [1],10 mM
same,concentration above which stylet concentration-response curve reached maximum plateau,G. pallida J2s [1]; response after 1 h,above 2 mM
CSc1ccc2c(c1)C(N1CCN(C)CC1)Cc1ccccc1S2 (stereo not drawn) [methiothepin],effect on mod-1 dependent serotonin-induced paralysis,G. pallida MOD-1,blocked
same,inhibition of stimulatory effect of serotonin on pumping,"C. elegans SER-7; 100 nM, transgenics expressing C. elegans ser-7, 100 μM serotonin",around 50%
same,number of nematodes present in the roots 13 days after inoculation (root invasion),G. pallida J2s [2],blocked
same,effect on mod-1 dependent serotonin-induced paralysis,C. elegans MOD-1,blocked
same,inhibition of stimulatory effect of serotonin on pumping,G. pallida SER-7,around 50%
same,antagonism of serotonin-induced stylet thrusting,G. pallida J2s [1]; G. pallida J2s,potent antagonist
same,effect on S-shaped posture and reduced movement induced by fluoxetine,G. pallida J2s [1],blocked
same,emergence of J2s from eggs (hatching),G. pallida,potently inhibited
"COC(=O)C(N)Cc1ccc(Cl)cc1.Cl (racemic) [CPA, 4-chloro-DL-phenylalanine methyl ester hydrochloride]",ability to inhibit pharyngeal pumping,G. pallida TPH-1,restored
same,number of nematodes present in the roots 13 days after inoculation (root invasion),G. pallida J2s [2],significantly reduced
same,stylet thrusting in response to fluoxetine,"G. pallida J2s [1]; 10 mM CPA overnight, 2 mM fluoxetine 30 min",reduced stylet thrusting
same,stylet thrusting in response to serotonin,"G. pallida J2s [1]; 10 mM CPA overnight, 10 mM serotonin 30 min",maintained their response
same,inhibition of pharyngeal pumping,C. elegans TPH-1; tph-1 mutant,did not cause any further reduction
same,ability to inhibit pharyngeal pumping,C. elegans TPH-1; tph-1 mutant expressing C. elegans tph-1,restored
same,inhibition of pharyngeal pumping,"C. elegans TPH-1; wild type C. elegans, CPA 10 mM",significantly inhibited
NCCc1ccc(O)cc1 [tyramine],effect on stylet behaviour,G. pallida J2s [1],no effect
NCC(O)c1ccc(O)cc1 (stereo not drawn) [octopamine],effect on stylet behaviour,G. pallida J2s [1],no effect
"COC(=O)[C@H]1[C@H]2C[C@@H]3c4[nH]c5cc(OC)ccc5c4CCN3C[C@H]2C[C@@H](OC(=O)c2cc(OC)c(OC)c(OC)c2)[C@@H]1OC [reserpine, (3β,16β,17α,18β,20α)-11,17-Dimethoxy-18-[(3,4,5-trimethoxybenzoyl)oxy]yohimban-16-carboxylic acid methyl ester]",number of nematodes present in the roots 13 days after inoculation (root invasion),G. pallida J2s [2],significantly decreased
same,dispersal from origin of agar arena (motility),G. pallida J2s [3],significant reduction
same,block of stimulatory effect of fluoxetine on stylet,"G. pallida J2s [1]; 5 μM, 24 h soak, 2 mM fluoxetine",near-complete block
same,recovery of fluoxetine-induced stylet response after washing,"G. pallida J2s [1]; 50 μM for 24 h, then water wash up to 22 hours",No recovery
same,block of stimulatory effect of fluoxetine on stylet,"G. pallida J2s [1]; 50 μM, 24 h soak, 2 mM fluoxetine",near-complete block
same,exposure time at which reduction of fluoxetine-stimulated stylet activity was evident,"G. pallida J2s [1]; 50 μM, 2 mM fluoxetine",4 h
same,exposure time to full block of fluoxetine-stimulated stylet activity,"G. pallida J2s [1]; 50 μM, 2 mM fluoxetine",8 h
same,exposure time to full inhibition of fluoxetine-stimulated stylet activity,"G. pallida J2s [1]; 50 μM, 2 mM fluoxetine 30 mins (FIG. 14B)",8 h
same,effect on stylet response to fluoxetine,G. pallida J2s [1]; 2 mM fluoxetine 30 min,concentration-dependent inhibition
same,effect on stylet response to fluoxetine,"G. pallida J2s [1]; 2 mM fluoxetine 30 min, listed as Reserpine",potently blocked
same,effect on stylet response to exogenous serotonin,G. pallida J2s [1]; 10 mM serotonin 30 min,no effect
same,effect on stylet response to exogenous serotonin,"G. pallida J2s [1]; 10 mM serotonin 30 min, listed as Reserpine",but not the response to serotonin
same,lowest concentration giving significant reduction of fluoxetine-induced stylet activity,"G. pallida J2s [1]; 24 h soak, 2 mM fluoxetine 30 min",5 nM
same,effect on S-shaped posture and reduced movement induced by fluoxetine,G. pallida J2s [1],blocked
same,independent stimulatory effect on stylet activity,G. pallida J2s [1]; reserpine alone,no independent stimulatory effect
NCCc1ccc(O)c(O)c1 [Dopamine],effect on stylet behaviour,G. pallida J2s [1],no effect
